Assay results published in ChEMBL document CHEMBL1201862, “PubChem BioAssay data set” (2004).
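Test compounds were applied to cells in 96-well plates for 48 hours at 5 doses. Abbreviation: GI50, concentration required for 50% inhibition of growth.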 The source made the active and inactive calls. No stated cut-off is given here; in the data, active = GI50 up to about 1.1 µM and inactive = higher.

Legend:
Test in all cases: growth of human tumour cells (NCI), 48 h
[1] = test system: 786-0
[2] = test system: A549
[3] = test system: HOP-92
[4] = test system: HT-29
[5] = test system: K562
[6] = test system: KM12
[7] = test system: LOX IMVI
[8] = test system: M14
[9] = test system: Malme-3M
[10] = test system: NCI-H226
[11] = test system: OVCAR-8
[12] = test system: SF-268
[13] = test system: SK-MEL-5
[14] = test system: SNB-19
[15] = test system: SNB-75
[16] = test system: SW-620
[17] = test system: UACC-62
[18] = test system: NCI-H460

Measured: GI50

CCNC1=Nc2ccc(Cl)cc2C(c2ccccc2)=NN1
inactive: [1] 17.8 µM | [2] 35.7 µM | [3] 24.4 µM | [4] 15.8 µM | [5] 6.38 µM | [6] 12.9 µM | [7] 18.9 µM | [8] 17.3 µM | [9] 16.9 µM | [10] 20.7 µM | [11] 26.8 µM | [12] 31.3 µM | [13] 14.8 µM | [14] 41.7 µM | [15] 19 µM | [16] 18 µM | [17] 14.6 µM

N=C(NC(=S)N1CCCCC1)N1CCCCC1
inactive: [1] > 100 µM | [2] > 100 µM | [3] > 100 µM | [4] > 100 µM | [5] > 100 µM | [6] > 100 µM | [7] > 100 µM | [8] > 100 µM | [9] > 100 µM | [10] 5.71 µM | [18] > 100 µM | [11] > 100 µM | [12] > 100 µM | [13] > 100 µM | [14] > 100 µM | [15] > 100 µM | [16] > 100 µM | [17] > 100 µM

CN(C)c1ccc(Cc2cc(C(C)(C)C)cc(C(C)(C)C)c2O)cc1
inactive: [1] 18.5 µM | [2] 19.8 µM | [4] 16.1 µM | [5] 11.7 µM | [6] 12.2 µM | [7] 10.6 µM | [8] 18.1 µM | [9] 22.5 µM | [18] 18.5 µM | [11] 20 µM | [12] 17.3 µM | [13] 15.6 µM | [14] 21.6 µM | [15] 31.2 µM | [16] 16.9 µM | [17] 14.7 µM

CCCCSN1C(=O)c2ccccc2C1=S
inactive: [1] 34.1 µM | [2] > 100 µM | [3] 41.1 µM | [4] 29.4 µM | [5] 22.9 µM | [6] 37.8 µM | [7] 54.2 µM | [8] 41.6 µM | [9] 63.7 µM | [18] > 100 µM | [11] 60.4 µM | [12] 48.9 µM | [13] 60.5 µM | [14] > 100 µM | [15] 72.4 µM | [16] 32.9 µM | [17] 55 µM

CN1CC(=O)N(C)c2[nH]cnc2C1=O
inactive: [1] > 100 µM | [2] > 100 µM | [4] > 100 µM | [5] > 100 µM | [6] > 100 µM | [7] > 100 µM | [8] > 100 µM | [9] > 100 µM | [10] > 100 µM | [18] > 100 µM | [11] > 100 µM | [12] > 100 µM | [13] > 100 µM | [14] > 100 µM | [15] > 100 µM | [16] > 100 µM | [17] > 100 µM

CC1(C)O[C@H]2[C@H](O)C[C@](O)(CO)C[C@H]2O1
inactive: [1] > 100 µM | [2] > 100 µM | [3] > 100 µM | [4] > 100 µM | [5] > 100 µM | [6] > 100 µM | [8] > 100 µM | [9] > 100 µM | [10] > 100 µM | [18] > 100 µM | [11] > 100 µM | [13] > 100 µM | [14] > 100 µM | [15] 48.2 µM | [16] > 100 µM | [17] > 100 µM

CC1(C)C(c2ccccc2)C12CCC1(C2=O)C(c2ccccc2)C1(C)C (stereo not given)
inactive: [1] 25.2 µM | [2] 26.4 µM | [3] 11.7 µM | [4] 16.1 µM | [5] 20 µM | [6] > 10 µM | [7] 20.2 µM | [8] 23.3 µM | [9] 26.7 µM | [10] 17.9 µM | [11] 34.1 µM | [12] 29.4 µM | [13] 18.7 µM | [14] 28.8 µM | [15] 30.4 µM | [16] 21.7 µM | [17] 32 µM

Cc1ccc(NC(=O)C2C3C=CC(O3)C2C(=O)O)cc1 (stereo not given)
inactive: [1] 53.3 µM | [2] > 100 µM | [3] > 100 µM | [4] 19.8 µM | [5] > 100 µM | [7] 23.7 µM | [8] > 100 µM | [9] > 100 µM | [10] > 100 µM | [18] > 100 µM | [11] > 100 µM | [12] > 100 µM | [13] > 100 µM | [14] > 100 µM | [15] > 100 µM | [16] 8.83 µM | [17] > 100 µM

c1ccc([B-]23Oc4ccccc4[NH+]2c2ccccc2O3)cc1 (stereo not given)
inactive: [1] > 100 µM | [2] > 100 µM | [3] > 100 µM | [4] > 100 µM | [5] 36.2 µM | [6] 77.6 µM | [7] 62.2 µM | [8] > 100 µM | [9] > 100 µM | [10] > 100 µM | [11] 57.7 µM | [12] > 100 µM | [13] > 100 µM | [14] > 100 µM | [15] > 100 µM | [16] 33.2 µM | [17] > 100 µM

O=C1[C@@H](c2ccc(Cl)cc2)[C@H]2CC=C[C@H]2N1O
inactive: [1] > 100 µM | [2] > 100 µM | [4] > 100 µM | [5] > 100 µM | [6] > 100 µM | [7] > 100 µM | [8] > 100 µM | [9] > 100 µM | [10] > 100 µM | [11] > 100 µM | [12] > 100 µM | [13] > 100 µM | [14] > 100 µM | [15] > 100 µM | [16] > 100 µM | [17] > 100 µM

Cc1ccc(C2=C(c3ccccc3)C(O)(c3ccccc3)C(c3ccccc3)=C2c2ccc(C)cc2)cc1
inactive: [1] > 100 µM | [2] > 100 µM | [4] 46.2 µM | [5] > 100 µM | [6] > 100 µM | [8] 83.8 µM | [9] > 100 µM | [10] > 100 µM | [18] > 100 µM | [11] > 100 µM | [12] > 100 µM | [13] > 100 µM | [14] > 100 µM | [15] > 100 µM | [16] > 100 µM

C=C(C)[C@H](O)C(O)CC(C)[C@@H]1CCC23CC12CCC1[C@@]2(C)CCC(OC(C)=O)C(C)(C)C2CC(OC2OC(COC(C)=O)C(O)C(O)C2O)[C@]13C (stereo not given in full)
inactive: [1] 7.4 µM | [2] 6.21 µM | [3] 5.37 µM | [4] 3.06 µM | [5] 2.42 µM | [6] 5.47 µM | [7] 4.86 µM | [8] 3.41 µM | [9] 7.91 µM | [10] 5.45 µM | [18] 4.78 µM | [11] 6.47 µM | [12] 5.31 µM | [14] 5.9 µM | [15] 3.4 µM | [16] 6.14 µM | [17] 3.84 µM
